Reference: patent publication US20230255953A1, “USE OF ROLUPERIDONE IN PREVENTING RELAPSE IN SCHIZOPHRENIA PATIENTS” (Minerva Neurosciences, Inc., priority 2022, published 2023)

Columns and labels:
[1] = tested on: patients with negative symptoms of schizophrenia; experiment: Integrated analysis (pooled ITT): rate of relapse and time to relapse; format: in vivo, human
Protocol: “Time to relapse” in the DB period is defined as the number of days from Day 1 to the date of early trial termination due to relapse. […] Treatment differences in time to relapse in the DB period were analyzed using a Cox-regression model with treatment group and Baseline PANSS total score as covariates. For the analysis of the OL period, this analysis was repeated to analyze treatment differences in time to relapse in the study. For the OL period analysis, patients who were not observed to relapse in the study were censored on the date on which they ended the study. Kaplan-Meier plots of time to relapse in the DB period, OL period, and in the study were generated.
In some embodiments, for any of the methods disclosed herein, a relapse refers to a patient who is terminated early during treatment (or a study trial) due to worsening of psychosis or an adverse event or generalized symptom in Table 1.
The Efficacy data from Study Nos. 1 and 2 were pooled. The majority of patients in the pooled ITT population completed the DB period (502 patients overall, 66.3%), with similar rates in each treatment group (placebo: 69.8%, 32 mg Roluperidone: 65.3%, and 64 mg Roluperidone: 63.8%) (Table 12). The majority (62.7%) of those who completed the DB period entered the OL period. The most common reason for discontinuation during the DB period among patients overall was withdrawal of consent (15.6%), followed by adverse events (7.3%) and lack of efficacy (5.4%) (Table 12). […] Approximately twice as many patients in the Roluperidone groups (32 mg: 8.5%; 64 mg: 9.1%) discontinued due to adverse events compared with patients in the placebo group (4.3%). More patients in the placebo group discontinued due to lack of efficacy (6.7%) than in the Roluperidone groups (32 mg: 4.4%; 64 mg: 5.1%). The low number of patients who discontinued due to lack of efficacy or withdrawal of consent probably reflects a low level of worsening of positive symptoms.

serotoninergic 5-HT2A = serotoninergic 5-HT2A (Homo sapiens, UniProt P28223); details: background statement; cited from earlier work
Chain of serotoninergic 5-HT2A (P28223 whole entry): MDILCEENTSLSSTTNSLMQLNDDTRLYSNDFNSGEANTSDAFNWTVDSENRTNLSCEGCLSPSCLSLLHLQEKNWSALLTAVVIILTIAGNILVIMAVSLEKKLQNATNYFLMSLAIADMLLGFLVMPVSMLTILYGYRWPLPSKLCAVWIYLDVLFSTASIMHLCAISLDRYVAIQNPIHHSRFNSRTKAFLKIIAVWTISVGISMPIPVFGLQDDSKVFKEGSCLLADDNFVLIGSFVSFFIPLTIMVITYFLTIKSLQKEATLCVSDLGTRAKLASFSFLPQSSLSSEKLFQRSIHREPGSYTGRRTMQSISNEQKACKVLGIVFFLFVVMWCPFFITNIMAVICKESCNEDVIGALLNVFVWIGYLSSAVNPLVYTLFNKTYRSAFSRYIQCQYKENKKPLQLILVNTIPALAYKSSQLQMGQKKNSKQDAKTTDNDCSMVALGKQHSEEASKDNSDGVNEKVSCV

[2] = Roluperidone Total (N = 502), DB period

## 1H-Isoindol-1-one,2-[ [1-[2-(4-fluorophenyl)-2-oxoethyl]-4-piperidinyl]methyl]-2,3-dihydro-, hydrochloride, hydrate (1:1:2) [Roluperidone]
[1]; 32 mg (N = 248), DB period
  Patients who experienced relapse (%): 8%
  Patients who experienced relapse (number): 19
[1]; 32 mg group, OL period
  Mean number of days to relapse: 234.8 days
[1]; 32 mg throughout, OL period
  Patients who experienced relapse (%): 7%
  Patients who experienced relapse (number): 10
[1]; 32 mg, DB period
  Days to relapse (Kaplan-Meier estimates), Mean: 128.3 days
  Days to relapse (Kaplan-Meier estimates), Median: 137.0 days
[1]; 64 mg (N = 254), DB period
  Patients who experienced relapse (%): 6%
  Patients who experienced relapse (number): 16
[1]; 64 mg group, OL period
  Mean number of days to relapse: 188.1 days
[1]; 64 mg throughout, OL period
  Patients who experienced relapse (%): 8%
  Patients who experienced relapse (number): 12
[1]; 64 mg, DB period
  Days to relapse (Kaplan-Meier estimates), Mean: 81.4 days
[1]; [2]
  Patients who experienced relapse (%): 7%
  Patients who experienced relapse (number): 35
[1]; Roluperidone Total, DB period
  Days to relapse (Kaplan-Meier estimates), Mean: 128.9 days
  Days to relapse (Kaplan-Meier estimates), Median: 137.0 days
[1]; placebo to 32 mg, OL period
  Patients who experienced relapse (%): 11%
  Patients who experienced relapse (number): 9
[1]; placebo to 64 mg, OL period
  Patients who experienced relapse (%): 1%
  Patients who experienced relapse (number): 1
[1]; total placebo to Roluperidone group, OL period
  Mean number of days to relapse: 256.3 days
Serotoninergic 5-HT2A
  Antagonistic activity: antagonistic activities
